For one assay, the system named is Hookworm. Nature of the assay: Albendazole deworming of Orang Asli (formalin-ether sedimentation, Kato Katz). Format: in vivo, human.
A further assay concerns T. trichiura. The assay is described as above. Format: in vivo, human.
The next assay deals with Ascaris spp. Described as above. Format: in vivo, human.
For the next assay, the system named is Bacteroides vulgatus. The assay is described as follows: B. vulgatus colonization (stool, small intestinal tissue) in Nod2−/− mice, reported together with goblet cells. Type of assay: in vivo. As to conditions: Nod2−/− mice injected IP with complex of 5 μg recombinant cytokine and 25 μg anti-cytokine antibody for 21 days.
The test system of the next assay is Clostridiales. The assay is described as follows: 16S sequencing of mouse stool / small intestinal microbiota (LEfSe). Format: in vivo. As to conditions: stool of uninfected Nod2−/− mice treated with recombinant cytokine, 16S / LEfSe.
In assay [1] the test system is M2 macrophage activation genes. Nature of the assay: RNA-seq gene expression analysis of small intestinal tissue (ileum) of Nod2−/− mice treated with rIL-13 or PBS. As to conditions: for Log2 Fold Change: Nod2−/− mice treated with recombinant IL-13 compared to PBS controls. Format: in vivo. An excerpt: Mice. Nod2−/−, Rag1−/−, Nod2−/−, and Stat6−/− mice on the C57BL/6 background were previously described and bred onsite in an MNV/Helicobacter-free specific pathogen free (SPF) facility at NYU School of Medicine (6, 23). Wild-type (WT) C57BL/6 mice were purchased from Jackson Laboratory and bred onsite to generate controls for experiments. Bone marrow chimeras were generated by lethally irradiating 8-week old female recipient mice (1100 CGy in two divided doses) followed by intravenous (i.v.) injection of 5×10^6 T cell-depleted bone marrow cells from donor female mice. For anti-CD4 treatment, mice were infected with T. muris and injected intra-peritoneally (IP) with 0.25 mg anti-CD4 (clone GK1.5) or anti-IgG2b isotype control (clone LTF-2) (BioXCell) every 3 days for 21 days and animals were sacrificed on day 21. For anti-IL13 treatment, mice were infected with H. polygyrus and injected IP with 0.15 mg anti-IL13 (clone 1316H) (eBioscience) or anti-IgG1 isotype control (clone 43414) (R&D Systems) starting on day 3 post-infection every 3 days for 12 days and animals were sacrificed on day 12. For recombinant IL-13 and IL-4 experiments, mice were injected IP with a complex of 25 μg of anti-IL13 (eBio1316H) and 5 μg of recombinant IL-13 (Peprotech cat #210-13), or a complex of 25 μg of anti-IL4 (BioXcel) and 5 μg of recombinant IL-4 (Peprotech cat #214-14) for 21 days and mice were sacrificed on day 21.
Gene Expression Analysis. RNA was isolated from one cm of small intestinal tissue (ileum) from Nod2^−/− mice treated with rIL-13 or PBS, or WT mice treated with PBS for normalization. An RNA library was prepared using the TruSeq stranded total RNA, with the RiboZero Gold kit and samples were sequenced on the Illumina HiSeq to generate single-end 50 bp reads. Raw sequencing reads were aligned to the mouse reference genome mm10 and the RefSeq reference transcriptome using TopHat (v2.0.12) with the alignment parameter—library-type fr-firststrand (28). Reads with mappability score (MAPQ) <30 were removed. The total number of filtered reads were counted for each gene using htseq-count with the parameters—stranded=reverse and—mode=union. Singleton genes (i.e. genes with total count <1) were filtered and the resulting count matrix was used for differential analysis using the DESeq2 workflow with default parameters (29, 30). Differential genes with rIL-13 treatment were identified at FDR 10%. Pathway analysis was performed using the DAVID platform as previously described (6).

The mark [2] stands for this setting: T. trichiura, post-treatment n=64.

Consider `CCCSc1ccc2nc(NC(=O)OC)[nH]c2c1` [albendazole], for which, in the assay with Hookworm (20 days), the “Cure rate (%)” value is 96 .3% and the “Number of infected persons cured after deworming” value was determined as 26. Moreover, the “range of epg after treatment” value with Hookworm (after albendazole 3×400 mg) came out at 22 epg. Further, in the assay with Hookworm (post-treatment n=64), the “Light-intensity infections after treatment (%)” value (“Light-intensity infections … (%)” for short) stood at 1.6%; the “Light-intensity infections after treatment, number” value (“Light-intensity infections … number” for short) is 1; the “Total infections after treatment (%)” value came out at 1.6%; the “Total infections after treatment, number” value is recorded as 1. Also, the “Cure rate (%)” value with T. trichiura (T. trichiura, 20 days, albendazole 3 doses, 400 mg/day) stood at 32.9%. For the same molecule, the “range of epg after treatment” value in the assay with T. trichiura (T. trichiura, after albendazole 3×400 mg) is 22-2,266 epg. Further, in the assay on T. trichiura (setting [2]), the “Light-intensity infections … (%)” value came out at 70.3%; the “Light-intensity infections … number” value is recorded as 45; the “Moderate-intensity infections after treatment (%)” value came out at 3.1%; the “Moderate-intensity infections after treatment, number” value is 2. In the assay with T. trichiura (setting [2]), the “Total infections after treatment (%)” value is given as 73.4% and the “Total infections after treatment, number” value amounted to 47. In addition, in the assay with T. trichiura (post treatment with Albendazole (3 doses, 400 mg/day)), the “Trichuris trichiura egg burden (eggs per gram of feces, Kato-Katz)” value is on record as “reduced”. For the same molecule, in the assay on Ascaris spp. (20 days), the “Cure rate (%)” value is on record as 80.0% and the “Number of infected persons cured after deworming” value is listed as 8. Also, the “range of epg after treatment” value with Ascaris spp. (after albendazole 3×400 mg) is listed as 22-4999 epg. In the assay with Ascaris spp. (post-treatment n=64), the “Light-intensity infections … (%)” value came out at 3.1%; the “Light-intensity infections … number” value is reported as 2; the “Total infections after treatment (%)” value worked out at 3.1%; the “Total infections after treatment, number” value is listed as 2.

B1: rIL-13: recombinant IL-13 (Peprotech cat #210-13), type 2 cytokine, injected IP as complex with anti-IL13 (protein, UniProt P20109 19-131, looked up)
Interleukin-13: APGPVPRSVSLPLTLKELIEELSNITQDQTPLCNGSMVWSVDLAAGGFCVALDSLTNISNCNAIYRTQRILHGLCNRKAPTTVSSLPDTKIEVAHFITKLLSYTKQLFRHGPF
modifications: complexed with anti-IL-13 antibody
notes: recombinant IL-13 (Peprotech cat #210-13), type 2 cytokine, injected IP as complex with anti-IL13
Turning to B1, the “effect on B. vulgatus and goblet cells” value in the assay with Bacteroides vulgatus is on record as “sufficient to reproduce the effect of helminth infection”. Also, the “expansion of Clostridiales” value in the assay with Clostridiales is on record as “expansion of Clostridiales was also observed”; in the assay with Clostridiales (listed as IL-13), “induces the expansion of bacteria from the class Clostridia in the GI tract”. Besides, the “Log2 Fold Change” value is 1.468 in assay [1] (gene Arg1 (NM_007482)); 1.5 in assay [1] (gene Ccl8 (NM_021443)); 1.504 in assay [1] (gene Cd5l (NM_009690)); 2.681 in assay [1] (gene Chi3l3 (NM_009892)); 1.698 in assay [1] (gene Ear11 (NM_053113)); 1.53 in assay [1] (gene Gm11428 (NM_001081957)). Besides, the “Log2 Fold Change” value is reported as 1.625 in assay [1] (gene Retnla (NM_020509)), 1.846 in assay [1] (gene Saa3 (NM_011315)) and 1.58 in assay [1] (gene Serpina3n (NM_009252)). For the same molecule, in assay [1] (rIL-13 treated Nod2−/− mice), the “RNA-seq analysis of intestinal tissues: response” value is “wound healing response characterized by expression of M2 macrophage genes”.

B2: rIL-4: recombinant IL-4 (Peprotech cat #214-14), type 2 cytokine, injected IP as complex with anti-IL4 (protein, UniProt P07750 21-140, looked up)
Interleukin-4: HIHGCDKNHLREIIGILNEVTGEGTPCTEMDVPNVLTATKNTTESELVCRASKVLRIFYLKHGKTPCLKKNSSVLMELQRLFRAFRCLDSSISCTMNESKSTSLKDFLESLKSIMQMDYS
modifications: complexed with anti-IL-4 antibody
notes: recombinant IL-4 (Peprotech cat #214-14), type 2 cytokine, injected IP as complex with anti-IL4
Take B2: the “effect on B. vulgatus and goblet cells” value in the assay with Bacteroides vulgatus was “sufficient to reproduce the effect of helminth infection”. In addition, the entries for the “expansion of Clostridiales” value with Clostridiales and in the assay with Clostridiales (listed as IL-4) were “expansion of Clostridiales was also observed” and “induces the expansion of bacteria from the class Clostridia in the GI tract”, respectively.

For the origin of these results see patent publication US20170290889A1, “METHODS AND COMPOSITIONS FOR TREATING DYSBIOSIS AND GASTROINTESTINAL AND INFLAMMATORY DISORDERS” (New York University, priority 2016, published 2017).
